Laboratory results from a compilation of properties of binary mixtures (doi:10.1021/acs.jpcc.9b02625).

Experiment: xn = mol fraction of the nth substance listed
Conditions: 303.15 K, 101 kPa

O=S(=O)([N-]S(=O)(=O)C(F)(F)F)C(F)(F)F.[Li+] + O=S1(=O)CCCC1
electrical conductivity (x1 = 0.1): 0.274 S/m | viscosity (x1 = 0.1): 28 mPa·s | electrical conductivity (x1 = 0.111): 0.262 S/m | viscosity (x1 = 0.111): 31 mPa·s | electrical conductivity (x1 = 0.2): 0.166 S/m | viscosity (x1 = 0.2): 90.3 mPa·s | electrical conductivity (x1 = 0.25): 0.104 S/m | viscosity (x1 = 0.25): 175 mPa·s | electrical conductivity (x1 = 0.333): 0.042 S/m | viscosity (x1 = 0.333): 627 mPa·s
